In ChEMBL document CHEMBL3414561, “Discovery of 4'-chloromethyl-2'-deoxy-3',5'-di-O-isobutyryl-2'-fluorocytidine (ALS-8176), a first-in-class RSV polymerase inhibitor for treatment of human respiratory syncytial virus infection” (J Med Chem, 2015):
The source made the active and inactive calls. The calls are words filed in the database; no cut-off is given here.

Key:
[1] = Inhibition of Respiratory syncytial virus RNA polymerase in crude RSV RNP complex assessed as inhibition of [33P]CMP incorporation into RNA chain
[2] = Cytotoxicity against human HeLa cells assessed as cell viability by CellTiter-Glo luminescent assay; format: cell-based
[3] = tested on: Respiratory syncytial virus; experiment: Antiviral activity against Respiratory syncytial virus subgenomic replicon system in 395 HeLa cells assessed as reduction in viral replication after 7 days by renilla luciferase assay; format: functional, organism-based; conditions: human respiratory syncytial virus, 168 h
[4] = Clearance in Sprague-Dawley rat at 5 mg/kg, iv; format: ADME, organism-based; parameters: dose 5 mg/kg, route intravenous; conditions: in vivo
[5] = Drug metabolism in human normal bronchial epithelial cells assessed as nucleotide 5'-triphosphate level measured per million cells at 50 uM after 1 to 5 days by LC/MS/MS analysis; format: ADME, cell-based; conditions: epithelial cell
[6] = AUCinf in Sprague-Dawley rat at 5 mg/kg, iv; format: ADME, organism-based; parameters: time infinity, dose 5 mg/kg, route intravenous; conditions: plasma
[7] = Drug metabolism in human nasal cells assessed as nucleotide 5'-triphosphate level measured per million cells at 50 uM after 1 to 5 days by LC/MS/MS analysis; format: ADME, cell-based
[8] = Half life in Non-naive cynomolgus monkey at 5 mg/kg, iv; format: ADME, organism-based, Macaca fascicularis; parameters: dose 5 mg/kg, route intravenous; conditions: in vivo
[9] = Drug uptake in Non-naive cynomolgus monkey assessed as lung NTP level at 5 mg/kg, iv after 1 hr; format: ADME, organism-based, Macaca fascicularis; parameters: dose 5 mg/kg, route intravenous; conditions: in vivo, read-out: Drug uptake
A549 = experiment: Drug metabolism in human A549 cells assessed as nucleotide 5'-triphosphate level measured per million cells at 50 uM after 1 to 5 days by LC/MS/MS analysis; format: ADME, cell-based; conditions: a549, 50 µM
[10] = Volume of distribution at steady state in Sprague-Dawley rat at 5 mg/kg, iv; format: ADME, organism-based; parameters: dose 5 mg/kg, route intravenous; conditions: in vivo, read-out: Vdss
[11] = Drug uptake in Non-naive cynomolgus monkey assessed as lung NMP level at 5 mg/kg, iv after 1 hr; format: ADME, organism-based, Macaca fascicularis; parameters: dose 5 mg/kg, route intravenous; conditions: in vivo, read-out: Drug uptake
[12] = Volume of distribution at steady state in Non-naive cynomolgus monkey at 5 mg/kg, iv; format: ADME, organism-based, Macaca fascicularis; parameters: dose 5 mg/kg, route intravenous; conditions: in vivo, read-out: Vdss
[13] = Drug metabolism in human Hep2 cells assessed as nucleotide 5'-triphosphate level measured per million cells at 50 uM after 1 to 5 days by LC/MS/MS analysis; format: ADME, cell-based; conditions: hep-2, 50 µM
[14] = Half life in Sprague-Dawley rat at 5 mg/kg, iv; format: ADME, organism-based; parameters: dose 5 mg/kg, route intravenous; conditions: in vivo
Cynomolgus monkey = experiment: Ratio of uridine metabolite to parent cytidine in Non-naive cynomolgus monkey at 5 mg/kg, iv; format: ADME, organism-based, Macaca fascicularis; parameters: dose 5 mg/kg, route intravenous; conditions: in vivo
[15] = AUCinf in Non-naive cynomolgus monkey at 5 mg/kg, iv; format: ADME, organism-based, Macaca fascicularis; parameters: time infinity, dose 5 mg/kg, route intravenous; conditions: plasma
[16] = Clearance in Non-naive cynomolgus monkey at 5 mg/kg, iv; format: ADME, organism-based, Macaca fascicularis; parameters: dose 5 mg/kg, route intravenous; conditions: in vivo
Homo sapiens [17] = organism: Homo sapiens; experiment: Inhibition of human DNA-dependent DNA polymerase alpha using calf thymus DNA/[3H]dTTP as substrate by microplate scintillation reader; conditions: concentration not given here
[18] = target: DNA polymerase beta (Homo sapiens) (UniProt P06746); experiment: Inhibition of human DNA-dependent DNA polymerase beta using calf thymus DNA/[3H]dTTP as substrate by microplate scintillation reader; conditions: concentration not given here
[19] = target: DNA-directed RNA polymerase, mitochondrial (Homo sapiens) (UniProt O00411); experiment: Binding affinity to human mitochondrial RNA polymerase assessed as compound incorporation using [33P]RNA/DNA primer/templates used by […] gel electrophoresis
Homo sapiens [20] = organism: Homo sapiens; experiment: Inhibition of human DNA-directed RNA polymerase 2 using cytomegalovirus DNA fragment as substrate; conditions: concentration not given here
Homo sapiens [21] = organism: Homo sapiens; experiment: Inhibition of human DNA-dependent DNA polymerase gamma using calf thymus DNA/[3H]dTTP as substrate by microplate scintillation reader; conditions: concentration not given here
[22] = target: DNA-directed RNA polymerase, mitochondrial (Homo sapiens) (UniProt O00411); experiment: Inhibition of human mitochondrial RNA polymerase assessed as 13-mer product using [33P]RNA/DNA primer/templates used by […] gel electrophoresis

Sequence of DNA-directed RNA polymerase, mitochondrial (Homo sapiens) (O00411 whole entry, the tested form may be a part): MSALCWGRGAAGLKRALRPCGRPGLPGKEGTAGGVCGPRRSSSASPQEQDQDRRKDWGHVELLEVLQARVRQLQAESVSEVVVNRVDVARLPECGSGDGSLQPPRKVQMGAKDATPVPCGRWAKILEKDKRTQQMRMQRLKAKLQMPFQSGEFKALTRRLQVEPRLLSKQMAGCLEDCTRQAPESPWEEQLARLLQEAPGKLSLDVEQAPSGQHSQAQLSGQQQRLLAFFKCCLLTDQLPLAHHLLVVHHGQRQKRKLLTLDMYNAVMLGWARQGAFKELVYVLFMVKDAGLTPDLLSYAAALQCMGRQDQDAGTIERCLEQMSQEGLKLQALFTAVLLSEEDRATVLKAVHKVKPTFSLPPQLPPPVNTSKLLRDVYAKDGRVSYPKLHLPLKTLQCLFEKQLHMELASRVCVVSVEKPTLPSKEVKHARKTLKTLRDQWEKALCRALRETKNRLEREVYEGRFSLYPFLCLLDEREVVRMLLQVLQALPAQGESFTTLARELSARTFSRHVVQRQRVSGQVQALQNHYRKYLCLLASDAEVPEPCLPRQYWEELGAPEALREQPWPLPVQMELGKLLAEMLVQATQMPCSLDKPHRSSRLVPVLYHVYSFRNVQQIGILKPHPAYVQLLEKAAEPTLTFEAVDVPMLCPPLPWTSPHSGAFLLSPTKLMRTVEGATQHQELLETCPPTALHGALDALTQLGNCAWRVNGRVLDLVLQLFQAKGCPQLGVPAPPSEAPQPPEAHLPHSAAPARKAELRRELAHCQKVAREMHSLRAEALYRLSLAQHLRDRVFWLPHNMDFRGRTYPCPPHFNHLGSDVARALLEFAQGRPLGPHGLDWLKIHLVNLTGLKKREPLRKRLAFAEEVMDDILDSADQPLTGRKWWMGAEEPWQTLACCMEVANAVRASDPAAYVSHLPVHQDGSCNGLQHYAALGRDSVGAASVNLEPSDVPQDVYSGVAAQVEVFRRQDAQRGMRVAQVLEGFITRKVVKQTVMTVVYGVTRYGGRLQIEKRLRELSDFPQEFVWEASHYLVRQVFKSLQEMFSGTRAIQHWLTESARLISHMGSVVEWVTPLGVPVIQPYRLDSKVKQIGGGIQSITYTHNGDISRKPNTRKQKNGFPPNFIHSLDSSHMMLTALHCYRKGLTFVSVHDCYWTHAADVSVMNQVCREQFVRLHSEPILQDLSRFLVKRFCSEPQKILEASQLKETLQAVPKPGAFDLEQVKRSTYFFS

## Nc1ccn([C@@H]2O[C@](CCl)(COP(=O)(O)OP(=O)(O)OP(=O)(O)O)[C@@H](O)[C@H]2O)c(=O)n1
[1]
  IC50: 1600 nM

## CCC[C@]1(COP(=O)(O)OP(=O)(O)OP(=O)(O)O)O[C@@H](n2ccc(N)nc2=O)[C@H](F)[C@@H]1O
[1]
  IC50: 2000 nM

## [N-]=[N+]=N[C@]1(COP(=O)(O)OP(=O)(O)OP(=O)(O)O)O[C@@H](n2ccc(N)nc2=O)[C@@H](O)[C@@H]1O
[1]
  IC50: 200 nM

## [N-]=[N+]=N[C@]1(CO)O[C@@H](n2ccc(N)nc2=O)[C@H](F)[C@@H]1O
[2]
  CC50: > 100000 nM
[3]
  EC50: 190 nM

## Nc1ccn([C@@H]2O[C@@](CO)(CCl)[C@@H](O)[C@@H]2O)c(=O)n1
[2]
  CC50: > 100000 nM
[3]
  EC50: > 100000 nM

## CSC[C@]1(CO)O[C@@H](n2ccc(N)nc2=O)[C@H](F)[C@@H]1O
[2]
  CC50: > 63000 nM
[3]
  EC50: 510 nM

## CC(C)C(=O)O[C@H]1[C@@H](F)[C@H](n2ccc(N)nc2=O)O[C@@]1(CO)CCl
[2]
  CC50: > 88000 nM
[3]
  EC50: 160 nM

## C=CC[C@]1(COP(=O)(O)OP(=O)(O)OP(=O)(O)O)O[C@@H](n2ccc(N)nc2=O)[C@H](F)[C@@H]1O
[1]
  IC50: 90 nM

## Nc1ccn([C@@H]2O[C@@](CO)(CF)[C@@H](O)[C@H]2F)c(=O)n1
[4]
  clearance: 2.69 mL/min/kg
[5]
  Drug metabolism: 153 pmol
[6]
  AUC(0-inf): 31800 ng·h/mL
[7]
  Drug metabolism: 240 pmol
[8]
  half-life: 7.66 h
[2]
  CC50: > 100000 nM
[9]
  concentration: 374 nM
A549
  Drug metabolism: 55 pmol
[10]
  Vd: 1.87 L/kg
[11]
  concentration: 5580 nM
[12]
  Vd: 5.6 L/kg
[13]
  Drug metabolism: 27.9 pmol
[14]
  half-life: 9.49 h
[3]
  EC50: 160 nM
Cynomolgus monkey
  Ratio: 3.39
[15]
  AUC(0-inf): 1540 ng·h/mL
[16]
  clearance: 54.3 mL/min/kg

## Nc1ccn([C@@H]2O[C@@](CO)(CBr)[C@@H](O)[C@H]2F)c(=O)n1
[2]
  CC50: > 100000 nM
[3]
  EC50: 480 nM

## [N-]=[N+]=N[C@]1(CO)O[C@@H](n2ccc(N)nc2=O)[C@@H](O)[C@@H]1O
[2]
  CC50: > 100000 nM
[3]
  EC50: 520 nM

## CCCCCCCC(=O)OC[C@@]1(CCl)O[C@@H](n2ccc(N)nc2=O)[C@H](F)[C@@H]1OC(=O)CCCCCCC
[2]
  CC50: > 66000 nM
[3]
  EC50: 280 nM

## Nc1ccn([C@@H]2O[C@@](CO)(CCl)[C@@H](O)[C@@H]2F)c(=O)n1
[2]
  CC50: > 100000 nM
[3]
  EC50: > 100000 nM

## C#C[C@]1(COP(=O)(O)OP(=O)(O)OP(=O)(O)O)O[C@@H](n2ccc(N)nc2=O)[C@H](F)[C@@H]1O
[1]
  IC50: 130 nM

## CO[C@]1(CO)O[C@@H](n2ccc(N)nc2=O)[C@H](F)[C@@H]1O
[2]
  CC50: > 100000 nM
[3]
  EC50: 12700 nM

## Nc1ccn([C@@H]2O[C@@](COP(=O)(O)OP(=O)(O)OP(=O)(O)O)(C3CC3)[C@@H](O)[C@H]2F)c(=O)n1
[1]
  IC50: 200 nM

## Nc1ccn([C@@H]2O[C@](CF)(COP(=O)(O)OP(=O)(O)OP(=O)(O)O)[C@@H](O)[C@H]2F)c(=O)n1
[1]
  IC50: 120 nM
Homo sapiens [17]
  inhibition: < 50%
[18]
  inhibition: < 50%
[19]
  Activity: Active
Homo sapiens [20]
  inhibition: < 50%
Homo sapiens [21]
  inhibition: < 50%
[22]
  inhibition: Active

## CCCCCCCC(=O)O[C@H]1[C@@H](F)[C@H](n2ccc(N)nc2=O)O[C@@]1(CO)CCl
[2]
  CC50: > 70000 nM
[3]
  EC50: 220 nM

## [N-]=[N+]=N[C@]1(COP(=O)(O)OP(=O)(O)OP(=O)(O)O)O[C@@H](n2ccc(N)nc2=O)C(F)(F)[C@@H]1O
[1]
  IC50: 300 nM
Homo sapiens [17]
  inhibition: < 50%
[18]
  inhibition: < 50%
Homo sapiens [20]
  inhibition: < 50%
Homo sapiens [21]
  inhibition: < 50%
[22]
  inhibition: inactive

## Nc1ccn([C@@H]2O[C@@](CO)(C3CC3)[C@@H](O)[C@H]2F)c(=O)n1
[2]
  CC50: > 100000 nM
[3]
  EC50: 560 nM

## CCCCCC(=O)OC[C@@]1(CCl)O[C@@H](n2ccc(N)nc2=O)[C@H](F)[C@@H]1OC(=O)CCCCC
[2]
  CC50: > 100000 nM
[3]
  EC50: 220 nM

## CCC(=O)OC[C@@]1(CCl)O[C@@H](n2ccc(N)nc2=O)[C@H](F)[C@@H]1OC(=O)CC
[2]
  CC50: > 100000 nM
[3]
  EC50: 40 nM

## CCCCC(=O)OC[C@@]1(CCl)O[C@@H](n2ccc(N)nc2=O)[C@H](F)[C@@H]1OC(=O)CCCC
[2]
  CC50: > 100000 nM
[3]
  EC50: 130 nM

## C[C@]1(CO)O[C@@H](n2ccc(N)nc2=O)[C@H](F)[C@@H]1O
[2]
  CC50: > 100000 nM
[3]
  EC50: 2140 nM
